Patent US12594293B2, “Use of 6-thio-dG to treat therapy-resistant telomerasepositive pediatric brain tumors” (The Board of Regents of The University of Texas System, priority 2018, dated 2026)

Columns and labels:
HFF+hTERT cells = experiment: Immunofluorescence and telomere FISH (TIF) assay; type: cell-based, human; details: for effect on 6-thio-dG-induced TIFs: 10 μM of ATM or 50 nM ATR specific inhibitor 2 hours prior to and with 3 μM 6-thio-dG for 48 hours
Protocol: Immunofluorescence and telomere FISH assay. Cells were fixed with 4% paraformaldehyde (PFA) for 15 minutes. Cells were then washed, permeabilized with 0.5% Triton-X-100 in PBS, blocked with 5% donkey serum and 0.3% Triton X-100 in TBS and incubated with primary antibodies against γH2A.X (1:500, rabbit), or cleaved caspase-3 (1:400, rabbit) (Cell Signaling); and/or TRF2 (1:200) (Mouse; NOVUS), as applicable, for overnight followed by TBST wash (×3) next day. Corresponding secondary antibodies were added (Alexa-Fluor 488- or 594-conjugated donkey anti-rabbit, or anti-mouse (1:500) (Jackson ImmunoResearch) for 1 hour and washed with TBS (×3) before mounting. For telomere-FISH, fixed and permeabilized cells were dehydrated with a graded ethanol concentration series, air-dried and covered with hybridization solution (70% formamide, 0.5% Blocking Reagent (Roche Diagnostics) diluted in 100 mM maleic acid and 150 mM sodium chloride, and 10 mM Tris (pH 7.5)) with 300 ng/mL PNA(CCCTAA)3-Cy3 (SEQ ID NO: 1) (Biosynthesis, USA), and denatured for 6 minutes at 84° C. followed by hybridization for at least two hours at room temperature. Cells were washed three times with 70% formamide and 10 mM Tris (pH 7.5) and three times with TBS. Finally, they were embedded with mounting media with DAPI (Vector Laboratories H1200).

[1] = test system: CD138-negative Multiple Myeloma Cancer Stem Cells; details: cells from bone marrow aspirates of patients with multiple myeloma; cited from earlier work
telomerase = experiment: Telomerase activity assay (TRAP) in treated HFF+hTERT cells; type: cell-based, human; details: IMT 2 μM
Protocol: Telomerase activity assay. Telomerase activity was assayed using the TRAPeze Telomerase Detection Kit (Millipore). Cell extracts were prepared according to the manufacturer's protocol. 50-100 ng of total protein was used to assess the telomerase activity by performing polyacrylamide gel (12.5%) electrophoresis.

[2] = test system: CD138-positive and CD138-negative cancer stem cells; details: by five weeks; cited from earlier work
[3] = children with recurrent CNS malignancies; thrombocytopenia that led to bleeding; cited from earlier work
HFF + hTERT = experiment: Cell growth assay (viable cell count, trypan blue exclusion); type: cell-based, human; details: pre-treated with IMT 2 μM 3 days, then 6-thio-dG 3 μM 3 days

Row | Compound | effect on 6-thio-dG-induced TIFs (HFF+hTERT cells) | in vitro clonogenic growth [1] | telomerase activity (TRAP assay) (telomerase) | effect on 6-thio-dG-induced TIF formation (HFF+hTERT cells; IMT 2 μM pre-treatment, then 6-thio-dG 3 μM 3 days) | genomic DNA damage (γH2AX foci) in cells treated with 6-thio-dG (HFF+hTERT cells; IMT 2 μM with 6-thio-dG 3 μM 3 days) | colony forming potential [2] | tolerability and efficacy of regimen [3] | inhibition of cell growth by 6-thio-dG in the combination treatment (HFF + hTERT)
1 | O=c1cc(-c2cccc3c2Sc2ccccc2S3)oc(N2CCOCC2)c1 [ATM inhibitor, reference compound] | reduction in the number of cells with TIFs |  |  |  |  |  |  | 
2 | CNCc1ccc(-c2cc(-c3nc(-c4ccc(S(=O)(=O)C(C)C)cc4)cnc3N)on2)cc1 [ATR inhibitor, reference compound] | reduction in the number of cells with TIFs |  |  |  |  |  |  | 
3 | imetelstat |  | inhibited the in vitro clonogenic growth | inhibition of telomerase activity | inhibited 6-thio-dG-induced TIF formation | reduced the genomic DNA damage | eliminated the colony forming potential | intolerable and ineffective | markedly reduced
